Assay results published in ChEMBL document CHEMBL1147737, “4-(3'alpha15'beta-dihydroxy-5'beta-estran-17'beta-yl)furan-2-methyl alcohol: an anti-digoxin agent with a novel mechanism of action” (2006).
The source made the active and inactive calls.

What was measured:
[1] = test system: Sodium/potassium-transporting ATPase (Cavia porcellus); test: Binding affinity to CS receptor on K(+)-ATPase; conditions: filed as antagonist
Cavia porcellus [2] = species: Cavia porcellus; test: Inhibition of 1 uM digoxin-induced increase in the force of contraction in guinea pig papillary muscle at 10 uM; type: functional
Cavia porcellus [3] = species: Cavia porcellus; test: Inhibition of digoxin-induced arrhythmias in guinea pig papillary muscle; type: functional
[4] = test system: Sodium/potassium-transporting ATPase (Cavia porcellus); test: Binding affinity to CS receptor on Na+-ATPase; conditions: filed as antagonist
NT2 = test: Inhibition of digoxin-induced transferrin accumulation in NT2 cells; type: functional, cell-based; conditions: Homo sapiens

Measured: Activity

C[C@]12CC[C@H]3[C@@H](CC[C@@H]4C[C@H](O)CC[C@@H]43)[C@@H]1[C@H](O)C[C@@H]2c1coc(CO)c1
active: [1] Antagonist | Cavia porcellus [2] | Cavia porcellus [3] | [4] Antagonist | NT2
